For 23 compounds, EC50, AC50 and IC50 results are on record in ChEMBL document CHEMBL1201862, “PubChem BioAssay data set” (2004).

The term EC50 denotes the concentration at which the effect is half-maximal. Usually AC50 stands for the midpoint of the concentration-response curve, whichever way the signal moves. One may read the IC50 as the concentration that gives 50% inhibition.

A short description of test [1]: cells. The test is classed as functional, cell-based.
Test [2] in a line: cells. The test is classed as functional, cell-based. This is another data set of the same source.
The nature of test [3]: blockers of HIV-1 envelope-mediated cell-cell fusion – cherry-pick, dose response (AID 652057). The format is functional, cell-based.
Test [4] can be described thus: blockers of HIV-1 ZM109 envelope-driven cell-cell fusion – HeLa effector, CEM target cells, luciferase, cherry-pick, dose response (AID 652058).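 Also: luciferase signal from HIV-1 Env mediated cell-cell fusion of effector and target cells.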 The test is classed as functional, cell-based.
Test [5] is described as follows: off-target signal loss in HeLa-CEM21 co-culture – HeLa F-luc CTL cells, cherry-picked, counter-screen for HIV-1 Env fusion inhibitor project, dose response (AID 652040).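 Also: potency for signal decrease marking cytotoxic or nonspecific inhibition.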 The test is classed as functional, cell-based.
The target of a further test is T1, Protein skinhead-1 (Caenorhabditis elegans, UniProt P34707).
T1 sequence (P34707 whole entry): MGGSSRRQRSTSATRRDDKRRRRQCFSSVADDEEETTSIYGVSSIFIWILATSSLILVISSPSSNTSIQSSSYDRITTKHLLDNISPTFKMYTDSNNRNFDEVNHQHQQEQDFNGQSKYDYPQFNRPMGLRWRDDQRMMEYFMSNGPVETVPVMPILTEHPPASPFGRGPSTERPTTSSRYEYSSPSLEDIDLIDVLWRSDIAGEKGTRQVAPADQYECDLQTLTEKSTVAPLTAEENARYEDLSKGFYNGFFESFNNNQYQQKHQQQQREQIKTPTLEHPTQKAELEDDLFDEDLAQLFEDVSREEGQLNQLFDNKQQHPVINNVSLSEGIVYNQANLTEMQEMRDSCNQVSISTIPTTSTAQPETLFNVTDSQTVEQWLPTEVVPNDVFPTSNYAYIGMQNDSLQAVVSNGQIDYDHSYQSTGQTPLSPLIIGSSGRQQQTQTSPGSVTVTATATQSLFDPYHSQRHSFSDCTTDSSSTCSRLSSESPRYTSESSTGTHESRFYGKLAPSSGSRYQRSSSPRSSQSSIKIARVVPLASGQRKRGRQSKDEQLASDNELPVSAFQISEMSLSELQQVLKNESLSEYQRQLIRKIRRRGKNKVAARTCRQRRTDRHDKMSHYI
The test is classed as functional.

Test [6] concerns the target T2, Replicative DNA helicase DnaB (Mycobacterium tuberculosis, UniProt P9WMR3).
T2 sequence (P9WMR3 whole entry): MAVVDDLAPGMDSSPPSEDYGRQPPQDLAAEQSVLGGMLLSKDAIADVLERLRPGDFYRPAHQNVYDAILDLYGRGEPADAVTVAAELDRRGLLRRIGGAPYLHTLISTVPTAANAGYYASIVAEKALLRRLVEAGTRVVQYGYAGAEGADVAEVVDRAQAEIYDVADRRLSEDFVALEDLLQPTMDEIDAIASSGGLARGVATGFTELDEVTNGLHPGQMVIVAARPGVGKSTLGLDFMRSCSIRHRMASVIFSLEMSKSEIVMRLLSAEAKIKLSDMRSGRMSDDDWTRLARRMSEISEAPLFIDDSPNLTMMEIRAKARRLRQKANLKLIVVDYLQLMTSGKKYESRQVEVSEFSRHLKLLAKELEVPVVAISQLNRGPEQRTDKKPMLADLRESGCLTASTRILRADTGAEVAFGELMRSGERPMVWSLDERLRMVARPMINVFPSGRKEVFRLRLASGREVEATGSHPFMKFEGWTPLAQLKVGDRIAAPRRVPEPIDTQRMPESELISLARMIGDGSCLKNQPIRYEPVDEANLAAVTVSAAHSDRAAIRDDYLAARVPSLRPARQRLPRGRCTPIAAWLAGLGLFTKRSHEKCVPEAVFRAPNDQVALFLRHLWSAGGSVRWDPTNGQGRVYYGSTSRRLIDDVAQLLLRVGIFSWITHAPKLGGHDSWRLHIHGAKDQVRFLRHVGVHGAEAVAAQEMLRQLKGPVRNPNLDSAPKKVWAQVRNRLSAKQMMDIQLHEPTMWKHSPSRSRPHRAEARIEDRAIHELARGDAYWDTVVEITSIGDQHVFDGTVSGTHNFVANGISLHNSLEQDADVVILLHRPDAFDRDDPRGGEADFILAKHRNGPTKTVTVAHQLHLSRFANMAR
Nature of the test: DnaB intein splicing inhibitors, dose response, biochemical, cell-free fluorescence (AID 449749). The format is functional.

In another test the target is T3, Protein RecA (Mycobacterium tuberculosis, UniProt P9WHJ3).
T3 sequence (P9WHJ3 whole entry): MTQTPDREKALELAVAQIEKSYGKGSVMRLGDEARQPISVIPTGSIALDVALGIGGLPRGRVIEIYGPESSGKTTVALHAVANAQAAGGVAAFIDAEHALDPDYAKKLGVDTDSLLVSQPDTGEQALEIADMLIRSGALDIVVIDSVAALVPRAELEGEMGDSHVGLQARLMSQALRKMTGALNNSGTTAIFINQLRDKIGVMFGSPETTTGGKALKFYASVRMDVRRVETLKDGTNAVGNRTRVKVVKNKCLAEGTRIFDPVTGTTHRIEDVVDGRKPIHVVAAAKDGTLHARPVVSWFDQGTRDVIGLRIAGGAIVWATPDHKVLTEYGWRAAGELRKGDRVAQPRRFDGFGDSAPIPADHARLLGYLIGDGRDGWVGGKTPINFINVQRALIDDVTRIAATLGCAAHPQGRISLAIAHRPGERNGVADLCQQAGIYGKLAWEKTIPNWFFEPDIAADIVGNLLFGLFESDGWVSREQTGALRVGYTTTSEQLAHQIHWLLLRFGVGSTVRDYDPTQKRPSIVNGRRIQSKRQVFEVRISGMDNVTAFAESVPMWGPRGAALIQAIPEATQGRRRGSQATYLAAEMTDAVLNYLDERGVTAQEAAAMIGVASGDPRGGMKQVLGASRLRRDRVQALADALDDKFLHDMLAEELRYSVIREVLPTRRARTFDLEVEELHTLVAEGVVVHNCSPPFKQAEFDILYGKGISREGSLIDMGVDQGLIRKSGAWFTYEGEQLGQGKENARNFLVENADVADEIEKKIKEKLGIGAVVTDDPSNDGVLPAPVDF
The test is described as follows: Fluorescence Cell-Free Homogeneous Dose Retest to Identify Inhibitors of RecA-Intein Splicing Activity. [Related pubchem assays (depositor defined):AID2097, AID2223, AID489010, AID492950]. The test is classed as functional.

Test [7] is described as follows: HIV-1 AD8 envelope cell-cell fusion blockers – cherry-pick, dose response (AID 652062).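 Also: luciferase signal from cell-cell fusion driven by HIV-1 clade B AD8 Env; potency is for inhibitors of fusion seen as a drop in luminescence.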 The test is classed as functional, cell-based.
Test [8] deals with T4, Rac GTPase-activating protein 1 (Homo sapiens, UniProt Q9H0H5).
T4 sequence (Q9H0H5 whole entry): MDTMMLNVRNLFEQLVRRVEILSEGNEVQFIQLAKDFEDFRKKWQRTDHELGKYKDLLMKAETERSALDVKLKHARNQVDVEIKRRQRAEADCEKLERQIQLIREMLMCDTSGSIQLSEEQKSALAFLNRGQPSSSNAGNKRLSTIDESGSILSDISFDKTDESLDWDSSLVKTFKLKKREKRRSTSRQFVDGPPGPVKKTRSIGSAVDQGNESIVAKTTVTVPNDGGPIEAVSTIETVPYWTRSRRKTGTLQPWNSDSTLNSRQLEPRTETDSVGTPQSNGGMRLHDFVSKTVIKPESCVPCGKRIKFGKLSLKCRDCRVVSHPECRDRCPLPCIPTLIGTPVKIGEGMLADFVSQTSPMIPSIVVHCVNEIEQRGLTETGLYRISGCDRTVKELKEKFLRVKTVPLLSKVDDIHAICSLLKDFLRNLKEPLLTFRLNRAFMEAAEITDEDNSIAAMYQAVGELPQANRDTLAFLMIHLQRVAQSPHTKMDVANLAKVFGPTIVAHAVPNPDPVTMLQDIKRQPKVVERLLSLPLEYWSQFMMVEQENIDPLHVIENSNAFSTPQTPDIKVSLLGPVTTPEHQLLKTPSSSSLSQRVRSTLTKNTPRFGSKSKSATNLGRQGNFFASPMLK
The test is described as follows: blockers of MgcRacGAP-driven Rac1 GTP hydrolysis – biochemical, ADP Hunter fluorescence, primary and confirmatory, confirmation (AID 624330). The test is classed as functional.

Test [9] has as its target T5, Heat shock factor protein 1 (Mus musculus, UniProt P38532).
T5 sequence (P38532 whole entry): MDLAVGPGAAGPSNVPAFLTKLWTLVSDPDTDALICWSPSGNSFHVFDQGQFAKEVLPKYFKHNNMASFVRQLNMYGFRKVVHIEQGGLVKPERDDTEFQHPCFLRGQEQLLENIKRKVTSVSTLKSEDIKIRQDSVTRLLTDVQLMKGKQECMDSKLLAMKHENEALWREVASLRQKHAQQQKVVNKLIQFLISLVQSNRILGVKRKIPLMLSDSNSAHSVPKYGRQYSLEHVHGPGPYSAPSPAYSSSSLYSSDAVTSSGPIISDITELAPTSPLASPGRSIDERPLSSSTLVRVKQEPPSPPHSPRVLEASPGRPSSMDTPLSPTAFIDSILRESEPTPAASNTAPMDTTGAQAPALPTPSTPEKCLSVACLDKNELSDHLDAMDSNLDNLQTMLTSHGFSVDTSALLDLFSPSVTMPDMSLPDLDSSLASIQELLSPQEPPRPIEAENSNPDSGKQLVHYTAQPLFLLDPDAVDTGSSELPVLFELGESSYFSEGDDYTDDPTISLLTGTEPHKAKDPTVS
Nature of the test: decrease of HSF1-responsive luciferase luminescence – cell-based, NIH3T3, dose retest, confirmation (AID 2382).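 Also: NIH3T3 fibroblasts with HSF1-driven luciferase reporter stressed by proteasome inhibitor MG132; luminescence from HSF1-driven luciferase expression after 8 hours of MG132 stress.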 The test is classed as functional.

Calls of active or inactive are those of the source. A value given as a limit tells only on which side of the number the result lay.

With `C1CC1Cc1noc(CN2CCN(CC3CC3)CC2)n1`, the EC50 in the test “cells [1]” and in “cells [2]” was > 350 µM (not active) throughout.

For `CN(C[C@H](Cc1ccccc1)N(C[C@H](c1ccccc1)N(CCc1ccccc1)N=O)N=O)N=O`, the half-maximal activity concentration (AC50) was 7.62 µM (active) in test [3], 9.49 µM (active) in [4] and 35.2 µM (active) in test [5].

As for `CCOC(=O)CN1C(=N)N(c2nc(NC(C)C)nc(NC(C)C)n2)CC1=O`, the EC50 in “cells [1]” and in the test “cells [2]” was > 350 µM (not active) each time.

Regarding `CSc1nsc(SCc2ccc(F)cc2)n1`, the 50% inhibitory concentration (IC50) at Protein skinhead-1 is 18.9 µM (active).

Take `CCCCCCn1c(N2CCC(C(N)=O)CC2)nc2c1c(=O)n(C)c(=O)n2C`: the AC50 in test [6] was > 380 µM (inactive). Besides, the EC50 on Protein RecA is > 380 µM (inactive). Also, on Protein skinhead-1, the IC50 is > 100 µM (inactive).

As to `Cc1cccc(NC(=O)Cc2noc3ccccc23)c1`, the figures for the 50% effective concentration (EC50) in “cells [1]” and in “cells [2]” were > 350 µM (not active) and 115 µM (active), respectively.

Regarding `Cc1ccc(-c2nc(CS(=O)(=O)CC(=O)NC3CCC(C)CC3)c(C)o2)cc1` (configuration not stated), the EC50 in the test “cells [1]” and in “cells [2]” was > 350 µM (not active) each time.

Consider `CC1CCN(C(=O)c2ncn3c2C(=O)NC[C@@H]3C)CC1`, for which the AC50 is 3.59 µM (active) in test [3], 15.7 µM (active) in [4] and 18 µM (active) in [5].

Consider `CN1C(=O)c2cc(NS(=O)(=O)c3ccccc3F)ccc2OC[C@@H]2O[C@H](CC(=O)NC3Cc4ccccc4C3)CC[C@@H]21`, for which the concentration at half-maximal activity (AC50) is 2.89 µM (active) in [3], 2.99 µM (active) in [4] and 8.06 µM (active) in test [7].

On to `N#Cc1ccccc1OCCCN1CCC(Cc2ccccc2)CC1`, for which the concentration for a half-maximal effect (EC50) in the test “cells [1]” and in the test “cells [2]” was > 350 µM (not active) throughout. Also, in test [8], the IC50 is 132 µM (active).

`O=C(NCC1CCCO1)c1sc2cc(Cl)ccc2c1Cl` (configuration not stated): the 50% effective concentration (EC50) was > 350 µM (not active) in the test “cells [1]” and 66.4 µM (active) in the test “cells [2]”.

`CCOc1ccccc1NC(=O)COc1ccc2c(c1)OCO2`: the EC50 in “cells [1]” and in the test “cells [2]” was > 350 µM (not active) each time.

In the case of `Cc1ccc2nc(-c3ccccc3NC(=O)CCC(=O)O)c(O)nc2c1`, the EC50 was > 350 µM (not active) in “cells [1]”, > 195 µM (not active) in test [9] and > 350 µM (not active) in the test “cells [2]”.

As to `COc1ccc(S(=O)(=O)N(C)C[C@@H]2Oc3ncc(-c4cc5ccccc5o4)cc3C(=O)N([C@H](C)CO)C[C@@H]2C)cc1`, the AC50 in test [3] was 10.5 µM (active); in test [7], 16.4 µM (active).

`CSc1cccc(NC(=O)c2cccc3cccnc23)c1`: on Protein skinhead-1, the half-inhibitory concentration (IC50) is 14.7 µM (active).

Regarding `Cc1onc(-c2ccccc2)c1C(=O)OCCOc1cccc(Cl)c1`, the AC50 in test [5] is > 70 µM (inactive).

As for `CCOc1cc2c(cc1OCC)C(C(=O)O)C(c1cc(OC)c(OC)c(OC)c1)N(C)C2=O` (configuration not stated), the IC50 on Protein skinhead-1 is > 100 µM (inactive).

In the case of `COc1ccc(NC(=O)Nc2ccc3c(c2)C(=O)N([C@H](C)CO)C[C@H](C)[C@H](CN(C)S(=O)(=O)c2ccc(F)cc2)O3)cc1`, the half-maximal activity concentration (AC50) in [3] was 13 µM (active); in [4], 16.6 µM (active); in test [7] it was 27.5 µM (active).

Consider `COc1ccc(C)cc1NC(=O)c1ccc(N(C)S(C)(=O)=O)cc1`, for which the half-maximal effective concentration (EC50) in the test “cells [1]” and in “cells [2]” was > 350 µM (not active) throughout.

As for `COc1ccc(CCN(Cc2cccs2)S(=O)(=O)c2ccc(-n3cnnn3)cc2)cc1OC`, the concentration at half-maximal activity (AC50) in [3] was 12.7 µM (active); in test [4], 20.3 µM (active); in test [7] it was 9.27 µM (active).

As to `O=C(c1nc[nH]c1C(=O)N1CCc2ccccc2C1)N1CCc2ccccc2C1`, the IC50 at Protein skinhead-1 was > 100 µM (inactive).

With `CCOC(=O)c1ccccc1NC(=O)Cc1ccccc1OC`, the IC50 at Protein skinhead-1 was > 100 µM (inactive).

For the compound `O=C(CN1CCOCC1)c1cccc2ccccc12`, the IC50 at Protein skinhead-1 is > 100 µM (inactive).
